# From US6624188B1, “Method of treatment with compounds having retinoid-like activity and reduced skin toxicity and lacking teratogenic effects” (Allergan, Inc., priority 1992, dated 2003)
# Like-named read-outs stand apart in the source and are kept apart here.
# Tests used:
# gestating ICR mice = assay: in vivo teratology study, single oral dose on day 11 of gestation; set-up: species or system mouse; conditions: female, ICR, mouse, in vivo, 17 day of gestation; for # Litters Normal / Teratogenic Effects % Cleft Palate / Teratogenic Effects % Limb Defects / Teratogenic Effects % Resorbed: po
# Protocol: The methodology of the study is described as follows:
# ICR mice (Ace Animals, Boyertown, Pa.) were used. Mature male and virgin female ICR mice were housed in environmentally controlled rooms and acclimatized to a 12 hour light/dark cycle (light cycle 6 A.M. to 6 P.M.) for 2 weeks prior to use. All animals were maintained on Purina Lab Chow and tap water ad libitum. A group of 3-4 females was caged with a single male of proven fertility for 4 hours. Presence of a vaginal plug immediately afterward was regarded as evidence of successful mating, and this day was designated as day 0 of gestation.
# […] All animals were killed by cervical dislocation under mild ether anesthesia on day 17 of gestation. Upon laparotomy, the fetuses were examined for external malformations and weighed; one-half of each litter was then fixed in 95% ethanol and processed for staining of the skeleton by the rapid, alizarin red-S dye method. These preparations were examined under a dissection microscope to screen for abnormalities in the axial and the appendicular skeleton. The other half of each litter was fixed in Bouin's solution and examined by freehand razor serial sectioning to screen for anomalies of the brain, face, and palate.
# Differences in dose-related incidence of malformations and resorptions were assessed by computing percentages of affected conceptuses among total implantation sites. The groups were compared statistically by a method based on Student's t-tests of arcs in square root transformed percentages. Values at 0.05 probability level were considered significant. The median effective dose was calculated by logarithmic curve fitting of the dose-response data.
# [1] = tested on: limb bud mesenchymal cells; assay: inhibition of chondrogenesis in high-density spot cultures of limb bud mesenchymal cells; type: cell-based; conditions: Mus musculus; limb bud mesenchymal cell spot cultures, terminated 96 hours after plating; read-out: IC50 (concentration which inhibited chondrogenesis by 50%)
# Text: In an in vitro bioassay which measures inhibition of chondrogenesis (bone formation) in […] as a classic measure of teratogenecity the results shown in Table 2 were obtained. The assay is described as follows:
# High-density “spot” cultures of limb bud mesenchymal cells were used to compare the ability of various concentrations of test drugs to suppress chondrogenic differentiation as a bioassay. Forelimb buds of mouse embryos on day 12 of gestation (54±2 somites) were dissociated in a trypsin-EDTA solution, and the resultant single-cell suspension was plated as 20-μl spots (200,000 cells/spot) on plastic culture dishes. Retinoid concentrations ranging from 0.3 ng/ml to 3 μg/ml (1 nM-10 μM) were added to the culture medium (Eagle's MEM+10% fetal bovine serum, GIBCO) 24 hours after initial plating. […]
# The cultures were terminated 96 hours after plating, at which time the medium was removed and the cells were fixed for 1 hour in 10% formalin containing 0.5% cetylpyridinium chloride. The cultures were rinsed in acetic acid and stained for 1 hour in 0.5% Alcian blue solution at pH 1.0, differentiated in 3% acetic acid, and then dehydrated in ethanol and scored for chondrogenesis under the microscope. […] The number of cartilage nodules stained in the whole spot, mean number of nodules, and standard deviations were calculated for four replicate cultures per treatment. […]
# female hairless mice = type: in vivo; conditions: animals died from a group of 5
# Protocol: Specifically, tests to determine skin toxicity were performed on certain examplary compounds in accordance with the present invention, and on certain analogous compounds which lack the R3 substituent in accordance with Formula 1, 2 or 3. A “Two Week Acute Skin Toxicity Study of Multiple Topical Applications in Female Hairless Mice” is conducted as follows: a daily dose (expressed in nanomoles) of the “test compound” is applied to the skin on the back of hairless mice (usually a test group of 5 mice for a given compound). The daily dose of the test compound is applied for 5 consecutive days, followed by two days when the test compound is not administered, and is thereafter administered again for 4 more consecutive days. On the 14th day the test animals if still alive, are sacrificed to perform certain studies and tests. In the meanwhile certain tests and observations are made on a daily basis with respect to body weight and skin condition. Skin condition is graded as “flaking/scaling” and “abrasion” on a scale of 0 to +5 where the various numbers correspond to the following observations.
# Results of these tests are summarized in Table 3, where daily dose is expressed in nanomoles, weight loss of the test animals is in percentages at the end of the 14 day test period, or at the time the test animal expired, and mortality is expressed with the number of animals which died from a group of 5.
smiles,measurement,setting,value
"C/C(=C\c1ccc(C(=O)O)cc1)c1ccc2c(c1)C(C)(C)CCC2(C)C [AGN 191183, reference compound]",litters that exhibited teratogenic effects,gestating ICR mice; 0.1 mg/kg,100%
same,# Litters Normal,gestating ICR mice; 0.01 mg/kg,2
same,Teratogenic Effects % Cleft Palate,gestating ICR mice; 0.01 mg/kg,29%
same,Teratogenic Effects % Limb Defects,gestating ICR mice; 0.01 mg/kg,20%
same,Teratogenic Effects % Resorbed,gestating ICR mice; 0.01 mg/kg,3%
same,# Litters Normal,gestating ICR mice; 0.1 mg/kg,0
same,Teratogenic Effects % Cleft Palate,gestating ICR mice; 0.1 mg/kg,100%
same,Teratogenic Effects % Limb Defects,gestating ICR mice; 0.1 mg/kg,100%
same,Teratogenic Effects % Resorbed,gestating ICR mice; 0.1 mg/kg,30%
same,# Litters Normal,gestating ICR mice; 1 mg/kg,0
same,Teratogenic Effects % Resorbed,gestating ICR mice; 1 mg/kg,100%
same,# Litters Normal,gestating ICR mice; 10 mg/kg,0
same,Teratogenic Effects % Resorbed,gestating ICR mice; 10 mg/kg,100%
same,IC50,[1],3 ng/mL
same,Death/Total,female hairless mice; daily dose 7.5 nanomoles topical,0/5
same,Death/Total,female hairless mice; daily dose 25 nanomoles topical,0/5
same,Death/Total,female hairless mice; daily dose 75 nanomoles topical,5/5
same,Death/Total,female hairless mice; daily dose 80 nanomoles topical,5/5
